Results: EP1953147A1, “HETEROCYCLIC COMPOUND AND MEDICINAL APPLICATION THEREOF” (priority 2005, dated 2007)

Tested on: ΔG/SEAP/HCV E1E2
Experiment: Effect of test substance on cell infection with HCV pseudotype virus (SEAP reporter assay in HepG2 cells)
Format: cell-based
Conditions: Hepatitis C virus

Compound | IC50
CC(C)Cc1nn(-c2cc(N3CC[C@H](O)C3)ccc2C(F)(F)F)c(=O)c2c1CCC2 [Example 144, 2-[5-((S)-3-hydroxy-pyrrolidin-1-yl)-2-trifluoromethyl-phenyl]-4-isobutyl-2,5,6,7-tetrahydro-cyclopenta[d]pyridazin-1-one] | 100 to 10000 nM
COc1cc(OC)cc(-c2nn(-c3cc(N4CC[C@H](O)C4)ccc3C(F)(F)F)c(=O)c3c2CCN3C(=O)OC(C)C)c1 [Example 155, 4-(3,5-dimethoxy-phenyl)-6-[5-((S)-3-hydroxy-pyrrolidin-1-yl)-2-trifluoromethyl-phenyl]-7-oxo-2,3,6,7-tetrahydro-pyrrolo[2,3-d]pyridazine-1-carboxylic acid isopropyl ester] | < 100 nM
COc1cc(OC)cc(-c2nn(-c3cc(Nc4ccccc4)ccc3C(F)(F)F)c(=O)c3c2CCC3)c1 [Example 134, 4-(3,5-dimethoxy-phenyl)-2-(5-phenylamino-2-trifluoromethyl-phenyl)-2,5,6,7-tetrahydro-cyclopenta[d]pyridazin-1-one] | 100 to 10000 nM
COc1cc(OC)cc(-c2nn(-c3cc(NC(C)=O)ccc3C(F)(F)F)c(=O)c3c2CCC3)c1 [Example 159, N-{3-[4-(3,5-dimethoxy-phenyl)-1-oxo-1,5,6,7-tetrahydro-cyclopenta[d]pyridazin-2-yl]-4-trifluoromethyl-phenyl}-acetamide] | < 100 nM
COc1cc(OC)cc(-c2nn(-c3cc(N4CC[C@H](O)C4)ccc3C(F)(F)F)c(=O)c3c2CCN3CCN)c1 [Example 49, 1-(2-amino-ethyl)-4-(3,5-dimethoxy-phenyl)-6-[5-((S)-3-hydroxy-pyrrolidin-1-yl)-2-trifluoromethylphenyl]-1,2,3,6-tetrahydro-pyrrolo[2,3-d]pyridazin-7-one] | < 100 nM
COc1cc(OC)cc(-c2nn(-c3cc(N)ccc3C(F)(F)F)c(=O)c3c2CCN3CCO)c1 [Example 1-41, 6-(5-amino-2-trifluoromethyl-phenyl)-4-(3,5-dimethoxy-phenyl)-1-(2-hydroxy-ethyl)-1,2,3,6-tetrahydro-pyrrolo[2,3-d]pyridazin-7-one] | < 100 nM
COc1cc(OC)cc(-c2nn(-c3cc(NCCC(N)=O)ccc3C(F)(F)F)c(=O)c3c2CCC3)c1 [Example 142, 3-{3-[4-(3,5-dimethoxy-phenyl)-1-oxo-1,5,6,7-tetrahydro-cyclopenta[d]pyridazin-2-yl]-4-trifluoromethyl-phenylamino}-propionamide] | < 100 nM
CCCNc1ccc(C(F)(F)F)c(-n2nc(-c3cc(OC)cc(OC)c3)c3c(c2=O)CCC3)c1 [Example 100, 4-(3,5-dimethoxy-phenyl)-2-(5-propylamino-2-trifluoromethyl-phenyl)-2,5,6,7-tetrahydro-cyclopenta[d]pyridazin-1-one] | < 100 nM
O=c1c2c(c(-c3cccs3)nn1-c1cc(N3CC[C@H](O)C3)ccc1C(F)(F)F)CCC2 [Example 1-17, 2-[5-((S)-3-hydroxy-pyrrolidin-1-yl)-2-trifluoromethylphenyl]-4-(thiophen-2-yl)-2,5,6,7-tetrahydro-cyclopenta[d]pyridazin-1-one] | < 100 nM
COc1ccc(-c2nn(-c3cc(N4CC[C@H](O)C4)ccc3C(F)(F)F)c(=O)c3c2CCC3)cc1 [Example 77, 2-[5-((S)-3-hydroxy-pyrrolidin-1-yl)-2-trifluoromethyl-phenyl]-4-(4-methoxy-phenyl)-2,5,6,7-tetrahydro-cyclopenta[d]pyridazin-1-one] | < 100 nM
COc1cc(OC)cc(-c2nn(-c3cc(N4CCOCC4)ccc3C(F)(F)F)c(=O)c3c2CCC3)c1 [Example 70, 4-(3,5-dimethoxy-phenyl)-2-(5-morpholin-4-yl-2-trifluoromethyl-phenyl)-2,5,6,7-tetrahydro-cyclopenta[d]pyridazin-1-one] | < 100 nM
CCOC(=O)N1CCc2c(-c3cc(O)cc(O)c3)nn(-c3cc(N4CC[C@H](O)C4)ccc3C(F)(F)F)c(=O)c21 [Example 61, 4-(3,5-dihydroxy-phenyl)-6-[5-((S)-3-hydroxy-pyrrolidin-1-yl)-2-trifluoromethyl-phenyl]-7-oxo-2,3,6,7-tetrahydro-pyrrolo[2,3-d]pyridazine-1-carboxylic acid ethyl ester] | 100 to 10000 nM
CCNC(=O)CN1CCc2c(-c3cc(OC)cc(OC)c3)nn(-c3cc(N4CC[C@H](O)C4)ccc3C(F)(F)F)c(=O)c21 [Example 33, 2-{4-(3,5-dimethoxy-phenyl)-6-[5-((S)-3-hydroxy-pyrrolidin-1-yl)-2-trifluoromethyl-phenyl]-7-oxo-2,3,6,7-tetrahydro-pyrrolo[2,3-d]pyridazin-1-yl}-N-ethyl-acetamide] | < 100 nM
COc1cc(OC)cc(-c2nn(-c3cc(OCCCO)ccc3C(F)(F)F)c(=O)c3c2CCC3)c1 [Example 1-13, 4-(3,5-dimethoxy-phenyl)-2-[5-(3-hydroxy-propoxy)-2-trifluoromethyl-phenyl]-2,5,6,7-tetrahydro-cyclopenta[d]pyridazin-1-one] | < 100 nM
COc1cc(OC)cc(-c2nn(-c3cc(N4CC[C@H](O)C4)ccc3OC)c(=O)c3c2CCC3)c1 [Example 1-15, 4-(3,5-dimethoxy-phenyl)-2-[5-((S)-3-hydroxy-pyrrolidin-1-yl)-2-methoxy-phenyl]-2,5,6,7-tetrahydro-cyclopenta[d]pyridazin-1-one] | 100 to 10000 nM
Cc1ccccc1-c1nn(-c2cc(N3CC[C@H](O)C3)ccc2C(F)(F)F)c(=O)c2c1CCC2 [Example 133, 2-[5-((S)-3-hydroxy-pyrrolidin-1-yl)-2-trifluoromethyl-phenyl]-4-o-tolyl-2,5,6,7-tetrahydro-cyclopenta[d]pyridazin-1-one] | 100 to 10000 nM
O=c1c2c(c(-c3ccc(Cl)cc3)nn1-c1cc(N3CC[C@H](O)C3)ccc1C(F)(F)F)CCC2 [Example 78, 4-(4-chloro-phenyl)-2-[5-((S)-3-hydroxy-pyrrolidin-1-yl)-2-trifluoromethyl-phenyl]-2,5,6,7-tetrahydro-cyclopenta[d]pyridazin-1-one] | < 100 nM
COc1cc(OC)cc(-c2nn(-c3cc(N4CC[C@H](O)C4)ccc3C(F)(F)F)c(=O)c3c2CC(C)N3)c1 (stereo partly drawn) [Example 20, 4-(3,5-dimethoxy-phenyl)-6-[5-((S)-3-hydroxy-pyrrolidin-1-yl)-2-trifluoromethyl-phenyl]-2-methyl-1,2,3,6-tetrahydro-pyrrolo[2,3-d]pyridazin-7-one] | < 100 nM
COc1cc(OC)cc(-c2nn(-c3cc(N4CC[C@H](O)C4)ccc3C(F)(F)F)c(=O)c3c2CCN3Cc2ccccc2)c1 [Example 102, 1-benzyl-4-(3,5-dimethoxy-phenyl)-6-[5-((S)-3-hydroxy-pyrrolidin-1-yl)-2-trifluoromethyl-phenyl]-1,2,3,6-tetrahydro-pyrrolo[2,3-d]pyridazin-7-one] | < 100 nM
NC(=O)c1ccc(-c2nn(-c3cc(N4CC[C@H](O)C4)ccc3C(F)(F)F)c(=O)c3c2CCC3)cc1 [Example 99, 4-{3-[5-((S)-3-hydroxy-pyrrolidin-1-yl)-2-trifluoromethyl-phenyl]-4-oxo-4,5,6,7-tetrahydro-3H-cyclopenta[d]pyridazin-1-yl}-benzamide] | 100 to 10000 nM
CCC(=O)Nc1ccc(C(F)(F)F)c(-n2nc(-c3cc(OC)cc(OC)c3)c3c(c2=O)CCC3)c1 [Example 57, N-{3-[4-(3,5-dimethoxy-phenyl)-1-oxo-1,5,6,7-tetrahydro-cyclopenta[d]pyridazin-2-yl]-4-trifluoromethyl-phenyl}-propionamide] | < 100 nM
COc1cc(OC)cc(-c2nn(-c3cc(N4CC[C@H](O)C4)ccc3C(F)(F)F)c(=O)c3c2CCN3CC(N)=O)c1 [Example 28, 2-{4-(3,5-dimethoxy-phenyl)-6-[5-((S)-3-hydroxy-pyrrolidin-1-yl)-2-trifluoromethyl-phenyl]-7-oxo-2,3,6,7-tetrahydro-pyrrolo[2,3-d]pyridazin-1-yl}-acetamide] | < 100 nM
CNC(=O)CCCNc1ccc(C(F)(F)F)c(-n2nc(-c3cc(OC)cc(OC)c3)c3c(c2=O)CCC3)c1 [Example 153, 4-{3-[4-(3,5-dimethoxy-phenyl)-1-oxo-1,5,6,7-tetrahydro-cyclopenta[d]pyridazin-2-yl]-4-trifluoromethyl-phenylamino}-N-methyl-butyramide] | < 100 nM
Cc1cc(-c2nn(-c3cc(N4CC(CO)C4)ccc3C(F)(F)F)c(=O)c3c2CCN3CCO)ccc1F [Example 1-23, 4-(4-fluoro-3-methyl-phenyl)-1-(2-hydroxy-ethyl)-6-[5-(3-hydroxymethyl-azetidin-1-yl)-2-trifluoromethylphenyl]-1,2,3,6-tetrahydro-pyrrolo[2,3-d]pyridazin-7-one] | < 100 nM
COc1cc(OC)cc(-c2nn(-c3cc(NCCc4ccccc4)ccc3C(F)(F)F)c(=O)c3c2CCC3)c1 [Example 136, 4-(3,5-dimethoxy-phenyl)-2-(5-phenethylamino-2-trifluoromethyl-phenyl)-2,5,6,7-tetrahydro-cyclopenta[d]pyridazin-1-one] | < 100 nM
COc1cc(C)cc(-c2nn(-c3cc(N4CC[C@H](O)C4)ccc3C(F)(F)F)c(=O)c3c2CCC3)c1 [Example 7, 2-[5-((S)-3-hydroxy-pyrrolidin-1-yl)-2-trifluoromethyl-phenyl]-4-(3-methoxy-5-methyl-phenyl)-2,5,6,7-tetrahydro-cyclopenta[d]pyridazin-1-one] | < 100 nM
O=c1c2c(c(-c3cccnc3)nn1-c1cc(N3CC[C@H](O)C3)ccc1C(F)(F)F)CCC2 [Example 103, 2-[5-((S)-3-hydroxy-pyrrolidin-1-yl)-2-trifluoromethyl-phenyl]-4-pyridin-3-yl-2,5,6,7-tetrahydro-cyclopenta[d]pyridazin-1-one] | 100 to 10000 nM
COc1cc(OC)cc(-c2nn(-c3cc(NCCO)ccc3C(F)(F)F)c(=O)c3c2CCC3)c1 [Example 91, 4-(3,5-dimethoxy-phenyl)-2-[5-(2-hydroxy-ethylamino)-2-trifluoromethyl-phenyl]-2,5,6,7-tetrahydro-cyclopenta[d]pyridazin-1-one] | < 100 nM
COC(=O)c1ccc(C(F)(F)F)c(-n2nc(-c3cc(OC)cc(OC)c3)c3c(c2=O)CCC3)c1 [Example 1-9, methyl 3-[4-(3,5-dimethoxy-phenyl)-1-oxo-1,5,6,7-tetrahydro-cyclopenta[d]pyridazin-2-yl]-4-trifluoromethyl-benzoate] | < 100 nM
